This note sets out measurements from ChEMBL document CHEMBL1201862, “PubChem BioAssay data set” (2004).

Assay in all cases: NCI tumour cell line growth inhibition, 48 h
The test system of assay [1] is SF-539.
In assay [2] the test system is Malme-3M.
The subject of assay [3] is SK-OV-3.
Assay [4] deals with HOP-62.
Assay [5] deals with SN12C.
The subject of assay [6] is LOX IMVI.
In assay [7] the test system is M14.
The test system of assay [8] is HL-60.
Assay [9] has as its system RXF 393.
Assay [10] deals with UACC-257.
The subject of assay [11] is SW-620.
Assay [12] deals with NCI-H23.
The test system of assay [13] is OVCAR-3.
Assay [14] deals with SK-MEL-2.
For assay [15], the system named is TK-10.
The test system of assay [16] is SNB-19.
Assay [17] relates to ACHN.
Assay [18] concerns K562.
For assay [19], the system named is SK-MEL-28.
Assay [20] relates to SF-295.

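In this assay, cells in 96-well plates receive the compound at five concentrations for 48 hours. Endpoints are linearly interpolated between the surrounding concentrations. The concentration for 50% growth inhibition is given as GI50.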 The source made the active and inactive calls. Rule as the data show it: active = GI50 up to about 1.1 µM and inactive = higher.

Turning to `COC(=O)C(Cc1c[nH]c2ccccc12)NC1=Nc2ccncc2S(=O)(=O)N1c1ccccc1` (stereo not given), the GI50 in assay [1] was 17.1 µM (inactive); in assay [2] it was 19 µM (inactive); in [3] it was 56.5 µM (inactive); in [4], 67.3 µM (inactive); in [5], 78.3 µM (inactive); in assay [6], 28.2 µM (inactive). Also, the GI50 in assay [7] is 35.6 µM (inactive); in assay [8] it was 0.199 µM (active); in [9], 19.9 µM (inactive); in [10], 50.1 µM (inactive); in assay [11] it was 28.1 µM (inactive); in assay [12], 41.5 µM (inactive). Further, the GI50 in [13] was 34.2 µM (inactive); in assay [14], 38.1 µM (inactive); in assay [15] it was > 100 µM (inactive); in assay [16], > 100 µM (inactive); in assay [17], 29.9 µM (inactive); in [18] it was 20.5 µM (inactive). For the same compound, the results for the GI50 in assay [19] and in [20] were 28.4 µM (inactive) and 52.1 µM (inactive), respectively.
In the case of `Cc1nc2ccccc2n1Cc1ccc(NC(=S)Nc2ccccc2)cc1`, the GI50 in assay [1] is 23.8 µM (inactive); in assay [2] it was 30.4 µM (inactive); in [3], > 100 µM (inactive); in [4], > 100 µM (inactive); in [5] it was 76.4 µM (inactive); in [6] it was 70.6 µM (inactive). For the same compound, the GI50 in assay [7] is 56.1 µM (inactive); in assay [8] it was 24.8 µM (inactive); in assay [9], 60 µM (inactive); in assay [10], 32.7 µM (inactive); in [11], 45 µM (inactive); in assay [12] it was 83.9 µM (inactive). Further, the GI50 in assay [13] was 27.9 µM (inactive); in assay [14], 73.8 µM (inactive); in assay [15], > 100 µM (inactive); in [16], > 100 µM (inactive); in [17] it was 35.2 µM (inactive); in assay [18], 33.4 µM (inactive). The GI50 was 66.7 µM (inactive) in [19] and 34.3 µM (inactive) in [20].
For the compound `O=C(N/N=C\c1ccc2ccccc2c1)Nc1ccc([N+](=O)[O-])cc1`, the GI50 in [1] was 19.5 µM (inactive); in assay [2], 27.7 µM (inactive); in [3] it was 18.9 µM (inactive); in assay [4], 27 µM (inactive); in assay [5], 24.2 µM (inactive); in assay [6], 30.5 µM (inactive). Moreover, the GI50 in assay [7] was 32.2 µM (inactive); in [8] it was > 57.9 µM (inactive); in assay [9], 26.4 µM (inactive); in [10] it was 29 µM (inactive); in [11], 32.7 µM (inactive); in [12], 22.2 µM (inactive). The GI50 is 20.2 µM (inactive) in assay [13]; 24 µM (inactive) in [14]; 18.9 µM (inactive) in assay [15]; 24.3 µM (inactive) in assay [16]; 24.6 µM (inactive) in [17]; 9.84 µM (inactive) in [18]. The figures for the GI50 in assay [19] and in assay [20] were 26.2 µM (inactive) and 22.5 µM (inactive), respectively.
On to `Cc1cc(S(=O)(=O)Nc2nc(N)nc(N(C)C)n2)c(SCC(=O)O)cc1Cl`, for which the GI50 in assay [1], in assay [2], in assay [3], in assay [4], in [5] and in [6] was > 10 µM (inactive) each time. In addition, the GI50 in assay [7], in assay [8], in [9], in assay [10], in [11] and in [12] was > 10 µM (inactive) in each case. Further, the GI50 in assay [13], in assay [14], in assay [15], in assay [16], in [17] and in assay [18] was > 10 µM (inactive) throughout. Further, the GI50 in assay [19] and in assay [20] was > 10 µM (inactive) in each case.
`CC(=O)O[C@H]1[C@@H](N2CCN(C)CC2)C[C@H]2[C@@H]3CC=C4C[C@@H](N5CCCC5)CC[C@]4(C)[C@H]3CC[C@@]21C`: the GI50 was 15 µM (inactive) in assay [1]; 26.1 µM (inactive) in assay [2]; > 100 µM (inactive) in assay [3]; 46.5 µM (inactive) in assay [4]; > 100 µM (inactive) in assay [5]; 17.4 µM (inactive) in assay [6]. For the same compound, the GI50 was 17.8 µM (inactive) in assay [7]; 11.2 µM (inactive) in assay [8]; 22.2 µM (inactive) in assay [9]; 21.1 µM (inactive) in assay [10]; 44.9 µM (inactive) in assay [11]; > 100 µM (inactive) in [12]. Moreover, the GI50 in assay [13] was 88.7 µM (inactive); in assay [14] it was > 100 µM (inactive); in assay [15], > 100 µM (inactive); in assay [16], > 100 µM (inactive); in [17], > 100 µM (inactive); in assay [18], 11.2 µM (inactive). Further, the figures for the GI50 in [19] and in assay [20] were 28.1 µM (inactive) and 21.7 µM (inactive), respectively.
For the compound `CC(C)OC(=O)c1cc(NC(=O)C(C)(C)C)c(F)cc1Cl`, the GI50 in [1], in assay [2], in assay [3], in assay [4], in assay [5] and in assay [6] was > 100 µM (inactive) each time. Moreover, the GI50 is > 100 µM (inactive) in [7]; 62.5 µM (inactive) in assay [8]; > 100 µM (inactive) in assay [9]; > 100 µM (inactive) in assay [10]; > 100 µM (inactive) in [11]; > 100 µM (inactive) in [12]. Also, the GI50 in [13], in assay [14], in [15], in assay [16], in [17] and in assay [18] was > 100 µM (inactive) throughout. The GI50 in assay [19] and in assay [20] was > 100 µM (inactive) throughout.
On to `Cc1nc2sc3cccc(Cl)c3n2c(=O)c1/N=N/c1ccc(Cl)cc1`, for which the GI50 is > 100 µM (inactive) in assay [1]; 70.6 µM (inactive) in assay [2]; > 100 µM (inactive) in assay [3]; 75.2 µM (inactive) in [4]; > 100 µM (inactive) in [5]; 58.1 µM (inactive) in assay [6]. The GI50 in assay [7] was > 100 µM (inactive); in assay [8] it was > 100 µM (inactive); in [9], > 100 µM (inactive); in [10], 98.6 µM (inactive); in assay [11] it was 66.5 µM (inactive); in assay [12], 99.8 µM (inactive). In addition, the GI50 is 46.7 µM (inactive) in assay [13]; > 100 µM (inactive) in assay [14]; > 100 µM (inactive) in assay [15]; > 100 µM (inactive) in [16]; 59.7 µM (inactive) in assay [17]; 63 µM (inactive) in assay [18]. For the same compound, the results for the GI50 in assay [19] and in [20] were > 100 µM (inactive) and 53.1 µM (inactive), respectively.
